Measured values published in patent US5554653A, “Inhibitors of HIV protease useful for the treatment of AIDS” (Eli Lilly and Company, priority 1992, dated 1996).

Biological target: T1, HIV-1 protease (Human immunodeficiency virus type 1 group M subtype B, UniProt P04585)
T1 construct: Purified HIV-1 protease was obtained as described above; made in house; host or cells: E. coli K12 L507/pHP10D (NRRL B-18560)
Test: biochemical
Assay type: biochemical

CC(C)(C)NC(=O)c1ccccc1C[C@@H](O)[C@H](Cc1ccccc1)NC(=O)[C@H](Cc1ccccc1)NC=O [Example 40]
IC8 (read-out: Fluorescence Assay IC8): 1 µg/mL

CC(C)(C)NC(=O)c1ccccc1C[C@@H](O)[C@H](Cc1ccccc1)NC(=O)[C@H](CC(=O)OCc1ccccc1)NC(=O)C(F)(F)F [Example 41, [2R-(2R*,3S*,6S*)]-N-t-Butyl-2-[2-hydroxy-3-phenylmethyl-4-aza-5-oxo-6-N(trifluoromethylcarbonyl)amino-7-benzyloxycarbonyl]heptyl benzamide]
IC52 (read-out: Fluorescence Assay IC52): 0.02 µg/mL

[2R-(2R*,3S*,6S*)]-N-t-Butyl-2-[2-hydroxy-3-phenylmethyl-4-aza-5-oxo-6-N(trifluoromethylcarbonyl)amino-7-naphth-2-ylthio]heptyl benzamide [Example 42]
Fluorescence Assay IC50: 0.74 ng/mL
